# Experimental data as given in US8822407B2, “Preparation of conjugates comprising adenine derivatives and allergenic proteins and their use for specific immunotherapy of allengenic diseases” (Universita' Degli Studi di Firenze, priority 2010, dated 2014).
# B1: ovalbumin (protein, UniProt P01012 2-386, looked up)
# Ovalbumin: GSIGAASMEFCFDVFKELKVHHANENIFYCPIAIMSALAMVYLGAKDSTRTQINKVVRFDKLPGFGDSIEAQCGTSVNVHSSLRDILNQITKPNDVYSFSLASRLYAEERYPILPEYLQCVKELYRGGLEPINFQTAADQARELINSWVESQTNGIIRNVLQPSSVDSQTAMVLVNAIVFKGLWEKAFKDEDTQAMPFRVTEQESKPVQMMYQIGLFRVASMASEKMKILELPFASGTMSMLVLLPDEVSGLEQLESIINFEKLTEWTSSNVMEERKIKVYLPRMKMEEKYNLTSVLMAMGITDVFSSSANLSGISSAESLKISQAVHAAHAEINEAGREVVGSAEAGVDAASVSEEFRADHPFLFCIKHIATNAVLFFGRCVSP
# notes: ovalbumin (OVA grade V)
# Legend:
# purified B cells = assay: B cell activation (tritiated thymidine incorporation); type: cell-based, human
# Protocol: Circulating mononuclear cells (MNC) are isolated by Ficoll-Hypaque density gradient from buffy coats of healthy donors (Servizio Immunotrasfusionale e terapie cellulari, Azienda Ospedaliero Universitaria Pediatrica A. Meyer, Firenze). 200×10^6 MNC are then separated using the commercial CD19 isolation kit (Miltenyi) by the addition of 400 μl iron microbead-bound anti-CD19 monoclonal antibody followed by magnetic separation on LS column. 20×10^6 B cells are isolated by positive selection and are extensively washed by the use of calcium- and magnesium-free PBS and cultured in triplicates at the concentration of 1×10^6/ml/well in complete medium plus 10% foetal calf serum in 96-U plates. […] Plates are incubated in humidified atmosphere at 37° C. for 72 hrs and at the end 0.5 μCi tritiated thymidine is added to each well for further 16 hrs. The incorporated radioactivity is measured as already described in step (f) of Example 4.
# TLR9 = target: T1, TLR9 (Homo sapiens, UniProt Q9NR96); assay: TLR9-transfected HEK293 cells, NF-kB luciferase reporter; type: cell-based; conditions: CpG-ODN 2006 1.3 μM; data not shown
# T1 construct: expressed in transfected cells; host or cells: HEK293 (transient Nucleofection, Amaxa)
# T1 sequence (Q9NR96 26-1032): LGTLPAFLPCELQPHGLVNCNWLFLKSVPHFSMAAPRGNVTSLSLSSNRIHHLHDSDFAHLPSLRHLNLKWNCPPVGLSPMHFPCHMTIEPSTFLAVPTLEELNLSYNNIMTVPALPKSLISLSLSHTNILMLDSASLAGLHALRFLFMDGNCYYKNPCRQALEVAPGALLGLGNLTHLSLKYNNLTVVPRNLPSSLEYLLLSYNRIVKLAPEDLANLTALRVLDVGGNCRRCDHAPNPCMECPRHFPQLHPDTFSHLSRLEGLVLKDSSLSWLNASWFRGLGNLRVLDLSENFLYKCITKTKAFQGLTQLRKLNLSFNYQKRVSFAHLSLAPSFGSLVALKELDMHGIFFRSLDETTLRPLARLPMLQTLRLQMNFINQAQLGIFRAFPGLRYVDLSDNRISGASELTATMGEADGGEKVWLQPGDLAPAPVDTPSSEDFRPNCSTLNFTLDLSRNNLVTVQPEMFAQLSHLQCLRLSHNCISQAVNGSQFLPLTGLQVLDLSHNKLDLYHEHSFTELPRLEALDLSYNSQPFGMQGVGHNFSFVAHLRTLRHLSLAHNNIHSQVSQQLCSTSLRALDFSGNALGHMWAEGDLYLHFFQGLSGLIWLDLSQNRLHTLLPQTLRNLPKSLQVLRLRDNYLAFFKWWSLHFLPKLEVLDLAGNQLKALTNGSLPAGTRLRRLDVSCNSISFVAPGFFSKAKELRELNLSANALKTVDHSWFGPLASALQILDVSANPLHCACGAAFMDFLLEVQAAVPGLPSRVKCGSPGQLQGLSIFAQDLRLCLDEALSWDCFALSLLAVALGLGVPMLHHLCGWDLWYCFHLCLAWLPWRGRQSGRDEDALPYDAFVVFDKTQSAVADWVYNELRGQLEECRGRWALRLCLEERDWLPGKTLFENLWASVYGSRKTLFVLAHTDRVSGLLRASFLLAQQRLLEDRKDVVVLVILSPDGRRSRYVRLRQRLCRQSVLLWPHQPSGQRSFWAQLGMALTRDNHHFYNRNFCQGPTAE
# Protocol: (§1) HEK293 cells are detached by trypsin from the plastic surface of the culture bottle, extensively washed with calcium and magnesium-free PBS, counted and adjusted at the concentration 1×10^6 cells/tube in polypropylene V-bottomed tubes. After the final wash, the cells are pelleted and 100 μl transfection buffer (Amaxa) is added together with […], TLR7, TLR8 or TLR9-encoding and ELAM-1 promoter NF-kB luciferase reporter plasmids. The mixture thus obtained is transferred in special cuvettes and transient transfection is obtained in a special apparatus which is able to directly introduce genetic material into the nucleus (Nucleofection®, Amaxa GmbH). The cells are then recovered and cultured at 1×10^5/ml in 48-flat bottomed plates in E-MEM medium plus 5% foetal calf serum for 18 hrs. […] Finally the luciferase activity is measured in the cellular lysates by a commercial kit (Promega).
# TLR3 = target: T2, TLR3 (Homo sapiens, UniProt O15455); assay: TLR3-transfected HEK293 cells, NF-kB luciferase reporter; type: cell-based; conditions: Poly I:C 50 μg/ml; data not shown
# T2 construct: expressed in transfected cells; host or cells: HEK293 (transient Nucleofection, Amaxa)
# T2 sequence (O15455 24-904): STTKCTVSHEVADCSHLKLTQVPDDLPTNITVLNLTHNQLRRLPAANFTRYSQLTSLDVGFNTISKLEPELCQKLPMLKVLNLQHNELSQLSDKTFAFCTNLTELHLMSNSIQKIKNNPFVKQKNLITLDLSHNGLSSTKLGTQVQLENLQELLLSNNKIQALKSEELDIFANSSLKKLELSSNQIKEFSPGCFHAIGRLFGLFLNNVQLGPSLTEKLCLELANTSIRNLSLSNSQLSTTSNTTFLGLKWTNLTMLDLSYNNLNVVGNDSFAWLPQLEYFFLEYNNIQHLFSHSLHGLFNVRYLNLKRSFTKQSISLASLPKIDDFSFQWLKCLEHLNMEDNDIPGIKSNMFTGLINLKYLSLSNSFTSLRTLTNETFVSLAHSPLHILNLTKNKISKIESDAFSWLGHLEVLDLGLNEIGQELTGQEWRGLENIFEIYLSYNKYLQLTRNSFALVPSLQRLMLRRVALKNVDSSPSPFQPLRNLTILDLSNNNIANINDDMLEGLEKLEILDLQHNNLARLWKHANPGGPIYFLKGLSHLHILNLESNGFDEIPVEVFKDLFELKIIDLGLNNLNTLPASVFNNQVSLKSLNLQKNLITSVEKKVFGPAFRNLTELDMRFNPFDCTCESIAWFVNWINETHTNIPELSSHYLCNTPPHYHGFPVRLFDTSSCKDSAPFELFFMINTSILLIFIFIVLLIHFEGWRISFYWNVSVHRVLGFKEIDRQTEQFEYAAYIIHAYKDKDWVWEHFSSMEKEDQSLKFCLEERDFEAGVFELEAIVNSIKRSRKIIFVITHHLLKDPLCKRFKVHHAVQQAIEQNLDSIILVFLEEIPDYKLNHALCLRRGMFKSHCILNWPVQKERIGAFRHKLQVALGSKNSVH
# Protocol: as §1
# purified CD14+ cells = assay: Cytokine production by purified CD14+ cells (ELISA of supernatants, 36 hrs); type: cell-based, human
# Protocol: Circulating mononuclear cells (MNC) are isolated by density gradient (Ficoll-Hypaque) using buffy coats from 14 normal donors (Servizio Immunotrasfusionale e terapie cellulari, Azienda Ospedaliera Universitaria A. Meyer, Firenze). 200×10^6 MNC are separated by the use of a commercial kit (CD14 isolation kit, Miltenyi) by the addition of 400 μl anti-CD14 monoclonal antibody bound to iron beads followed by isolation on magnetic columns (LS column). 50×10^6 monocytes are recovered by positive selection and are extensively washed with calcium and magnesium-free sterile PBS and then seeded in complete medium plus 10% foetal calf serum in 24 flat bottomed plates at the concentration of 1×10^6/ml. […] The plates are incubated for 36 hrs at 37° C. in 5% CO2 humidified atmosphere and the supernatants are collected after centrifugation at 1200 rpm, aliquoted and then stored at −20° C. up to the assay. […]
# For the determination of cytokines and chemokines of the innate immunity, commercial ELISAs have been used: IL-12p40 (Cytoscreen, Biosource Int, Camarillo, Calif.), IFN-alfa (Cytoscreen), TNF-alfa (Cytoscreen), IL-10 (Pharmingen), IL-6 and CXCL10 (R&D System). 100 μl/well of single supernatants are incubated in flat bottomed plates as specified by the productors and the amounts of the single cytokines are expressed as pg/ml on the basis of a reference curve by using recombinant cytokines.
# BALB/C and C57BL/6 mice = assay: Modification of antibody response in sensitized mice (serum IgE); type: in vivo; conditions: mice sensitized i.p. with 10 μg in alum
# Protocol: Ten BALB/C and ten C57BL/6 6-8 wk-old female mice (Charles River) have been intraperitoneally sensitized at day 0 and d 7 with 10 μg OVA (5 animals per strain) or OVA-conj (5 animals per strain) in the presence of alum. At d 14 and d 18 animals are stimulated intratracheally with 10 μg OVA and after 24 hrs unspecific bronchial hyperreactivity is measured administering first an aerosolized PBS solution to obtain the standard value and then an aerosolized solution containing increasing concentrations of methacolin for 3 min (6.25-12.5-25-50 mg/ml). The pletismograph in which the animal is inserted is able to monitor the values of airflow resistance.
# Serum levels of total and OVA-specific IgE have been determined at d 14 and d 18 (before the intratracheal allergic stimulation) in sensitized animals by the use of commercial kits.
# [1] = Table A, Donor #1, LPS, dose not printed in table (100 ng/ml elsewhere in the source)
# [2] = Table A, Donor #2, LPS, dose not printed in table (100 ng/ml elsewhere in the source)
# [3] = Table E, Donor #1, dose 0.1 μg/ml
# [4] = Table E, Donor #2, dose 0.1 μg/ml
molecule,measurement,setting,value
CpG-ODN 2006 [reference compound],Stimulation index (mean ± SE),"purified B cells; B cell proliferation, concentration 10 μg/ml",90.3 ± 7.5
same,proliferation of purified B lymphocytes (in words),purified B cells; thymidine incorporation,high levels of incorporation of radioactive thymidine
same,NF-κB expression in TLR9-transfected HEK293 cells,TLR9,able to induce NF-κB expression
Poly I:C,NF-κB expression in TLR3-expressing HEK293 cells,TLR3,activates TLR3-expressing cells
"lipopolysaccharide [LPS, reference compound]",IL-6 production,purified CD14+ cells; [1],12905 pg/mL
same,IL-10 production,purified CD14+ cells; [1],8140 pg/mL
same,IL-12p40 production,purified CD14+ cells; [1],2725 pg/mL
same,TNF-alfa production,purified CD14+ cells; [1],5331 pg/mL
same,IL-6 production,purified CD14+ cells; [2],3125 pg/mL
same,IL-10 production,purified CD14+ cells; [2],1155 pg/mL
same,IL-12p40 production,purified CD14+ cells; [2],6311 pg/mL
same,TNF-alfa production,purified CD14+ cells; [2],4619 pg/mL
same,IL-6 production (mean ± SE),"purified CD14+ cells; Table B, dose 1 μg/ml",17.5 ± 4.9 ng/mL
same,IL-10 production (mean ± SE),"purified CD14+ cells; Table B, dose 1 μg/ml",7.9 ± 1.9 ng/mL
same,IL-12p40 production (mean ± SE),"purified CD14+ cells; Table B, dose 1 μg/ml",3.8 ± 1.7 ng/mL
same,TNF-alfa production (mean ± SE),"purified CD14+ cells; Table B, dose 1 μg/ml",7.6 ± 2.7 ng/mL
same,IL-6 production,purified CD14+ cells; [3],27235 pg/mL
same,IL-10 production,purified CD14+ cells; [3],530 pg/mL
same,IL-12p40 production,purified CD14+ cells; [3],5627 pg/mL
same,TNF-alfa production,purified CD14+ cells; [3],3136 pg/mL
same,IL-6 production,purified CD14+ cells; [4],39499 pg/mL
same,IL-10 production,purified CD14+ cells; [4],3000 pg/mL
same,IL-12p40 production,purified CD14+ cells; [4],10522 pg/mL
same,TNF-alfa production,purified CD14+ cells; [4],14061 pg/mL
same,cytokine production from purified CD14+ cells (in words),purified CD14+ cells; text to Tables A and B,relevant amounts of modulatory (IL-12) and inflammatory (TNF-alfa and IL-6) cytokines
B1,Total IgE (mean ± SE),BALB/C and C57BL/6 mice; d14 pre-challenge,966 ± 268 pg/mL
same,Total IgE (mean ± SE),BALB/C and C57BL/6 mice; d18 post-challenge,680 ± 234 pg/mL
